This note sets out measurements from patent US4395413A, “Oxime ethers and pharmaceutical compositions containing the same” (Egyt Gyogyszervegyeszeti Gyar, priority 1979, dated 1983).

Read-outs that look alike come from different tables or passages of the source.

The subject of data set [1] is ischiadic nerve of rats. Description: local anaesthetic effect on the ischiadic nerve of rats (method of Truant and d'Amato). As to conditions: for Duration 0.25% / EC50: rats, ischiadic nerve; for Duration 0.25%: 0.25% concentration; for EC50: local anaesthesia; for Relative efficiency: referred to Lidocaine. It counts as in vivo. The source says:
The local anaesthetic effect was investigated on the ischiadic nerve of rats by means of the method of Truant and d'Amato /Truant, A. P. and Wiedling, S.: Acta Chirurg. Scand. 116, 351 /1958//. Lidocaine served as reference substance.
In Table III. below, the relative efficiency referred to Lidocaine and the duration of the effect on application of 0.25% concentrations of Lidocaine are given.

A short description of data set [2]: analgesic effect on mice (method of Koster). To be noted: for ED50: Mus musculus, po; for Therapeutic index: p.o. The class given is in vivo. As to the method:  The analgesic effect was determined on mice by the method of Koster, R.
Anderson, M., De Beer, E. J., Fred.

The nature of data set [3]: acute toxicity on white mice (strain CFLP). To be noted: mouse, in vivo, 4 days observation. As to the method: The acut toxicity of the new compounds according to the invention was determined on white mice of both sexes weighing 18-24 g belonging to the strain CFLP. Administration was effected with an oral or intraperitoneal dosage of 20 ml/kg. After treatment the animals were kept under observation for 4 days.

For data set [4], the system named is nicotine-lethality. Kind of data set: inhibition of nicotine-lethality on mice (method of Stone). It counts as in vivo. As to conditions: for ED50: Mus musculus, po, read-out: ED50 /p.o./; for Therapeutic index: nicotine-lethality inhibition. The method, then:
The inhibition of nicotine-lethality was determined on mice by the method of Stone /Stone, C. A. et al.: Arch. Intern.

The subject of data set [5] is orthostatic hypotension. Description: influence on the orthostatic hypotension. It counts as in vivo. To be noted: qualitative.
Data set [6] deals with carotid occlusion reflex. Kind of data set: effect on the carotid occlusion reflex. It counts as in vivo, cats. To be noted: qualitative. As to the method:
(§1) The hypotensive effect of the new compounds was tested on anaesthesized cats. The compound of Example 7, administered in doses of 3 and 5 mg/kg, results in a prolonged decrease of blood pressure of 40 Hgmm. […] This compound, orally tested on waking rats of normal tension in a dosage of 100 mg/kg, results in a decrease of blood pressure of 13 Hgmm.

Data set [7] deals with noradrenaline. Description: noradrenaline antagonistic (alpha-receptor blocking) effect. The class given is in vivo, cats.
Data set [8] in a line: hypotensive effect on anaesthesized cats. It counts as in vivo. To be noted: doses of 3 and 5 mg/kg. The method, then: as §1
Data set [9] concerns isoproterenol. Kind of data set: isoproterenol antagonistic (beta-receptor blocking) effect. It counts as in vivo, cats.
Data set [10] in a line: blood pressure of waking rats of normal tension, oral. As to conditions: orally, 100 mg/kg. It counts as in vivo. The method, then:
as §1

Where [11] appears, read: po, per os, read-out: LD50 per os.

`CCCCC=C1CCCCC1=NOCCCN1CCN(C)CC1` [Example 9, 2-pentylidene-1-[3'-/4"-methylpiperazinyl/-propoxyimino]-cyclohexane]: in data set [1], the “Duration 0.25%” value came to 64 min, the EC50 is 0.25 % conc and the Relative efficiency is 0.76. In [2], this compound returned an ED50 of 500 mg/kg and a Therapeutic index of 6. Also, the 50% lethal dose (LD50) at 96 h in data set [3] (ip, read-out: LD50 i.p.) came out at 200 mg/kg. For the same compound, the LD50 at 96 h in data set [3] (setting [11]) came out at 3000 mg/kg. In addition, the ED50 in [4] (mice, p.o., nicotine-lethality) was determined as 150 mg/kg. In [4] (mice, p.o.), this compound gave a Therapeutic index of 20.0.
As for `C=CCC1CCCCC1=NOCCCN1CCN(C)CC1` (stereo not shown) [Example 14, 2-allyl-[3'-/4"-methylpiperazinyl/-propoxyimino]-cyclohexane], the LD50 at 96 h worked out at 310 mg/kg in [3] (ip, read-out: LD50 i.p.) and 1600 mg/kg in [3] (setting [11]). Further, the ED50 in [4] (mice, p.o., nicotine-lethality) is 70 mg/kg. This compound also returned a Therapeutic index in data set [4] (mice, p.o.) of 22.0.
Turning to `CCCCC1CCCCC1=NOCC(C)CN(C)C` (stereo not shown) [Example 4, 2-n-butyl-1-/2'-methyl-3'-dimethylaminopropoxyimino/-cyclohexane], in data set [1], the “Duration 0.25%” value is 31 min, the EC50 is on record as 0.15 % conc and the Relative efficiency came out at 1.13. In addition, the LD50 at 96 h in data set [3] (ip, read-out: LD50 i.p.) was 110 mg/kg. Besides, the LD50 at 96 h in data set [3] (setting [11]) is 400 mg/kg.
Consider `CCCC=C1CCCCC1=NOCCCN1CCN(Cc2ccccc2)CC1` [Example 8, 2-butylidene-[3'-/4"-benzylpiperazinyl/-propoxyimino]-cyclohexane], for which, in [2], the ED50 came to 290 mg/kg and the Therapeutic index was determined as 5. Moreover, the LD50 at 96 h in data set [3] (ip, read-out: LD50 i.p.) was 230 mg/kg. The LD50 at 96 h in data set [3] (setting [11]) is 1450 mg/kg.
Taken in the same sequence, the figures for `CCCCC1CCCCC1=NOCCCN1CCN(Cc2ccccc2)CC1` (stereo not shown) [Example 5, 2-n-butyl-1-[3'-/4"-benzylpiperazinyl/-propoxyimino]-cyclohexane] were 250 mg/kg, 5.2, 240 mg/kg and 1300 mg/kg.
For `CCCCC1CCCCC1=NOCCCN(C)C` (stereo not shown) [Example 3, 2-n-butyl-1-/3'-dimethylaminopropoxyimino/-cyclohexane] the same measures were 45 mg/kg, 9, 100 mg/kg and 430 mg/kg.
For the compound `CCCCCCCC=C1CCCCC1=NOCCCN1CCN(C)CC1` [Example 16, 2-octylidene-1-[3'-/4"-methylpiperazinyl/propoxyimino]-cyclohexane], the results for the ED50 in data set [2] and in [4] were 200 mg/kg and 150 mg/kg, respectively. For the same compound, the Therapeutic index is 15.0 in data set [2] and 17.6 in data set [4] (mice, p.o.). The LD50 at 96 h in data set [3] (ip, read-out: LD50 i.p.) came to 270 mg/kg; in data set [3] (setting [11]), 3000 mg/kg.
In [2], `CCCCC=C1CCCCC1=NOCCCN1CCN(Cc2ccccc2)CC1` [Example 10, 2-pentylidene-1-[3'-/4"-benzylpiperazinyl/-propoxyimino]-cyclohexane] had an ED50 of 140 mg/kg and a Therapeutic index of 13.0. In [3] (ip, read-out: LD50 i.p.), the LD50 at 96 h came out at 160 mg/kg. For the same compound, in data set [3] (setting [11]), the LD50 at 96 h came out at 1800 mg/kg.
Regarding `OC(CCN1CCCCC1)(c1ccccc1)C1CCCCC1` (stereo not shown) [Trihexyphenidyl, reference compound], the ED50 in data set [4] (mice, p.o., nicotine-lethality) is 40 mg/kg. In [4] (mice, p.o.), this compound returned a Therapeutic index of 9.13.
Consider `CCCCCC=C1CCCCC1=NOCCCN1CCN(C)CC1` [Example 15, 2-hexylidene-1-[3'-/4"-methylpiperazinyl/propoxyimino]-cyclohexane], for which the LD50 at 96 h in data set [3] (ip, read-out: LD50 i.p.) came to 200 mg/kg; in data set [3] (setting [11]) it was 3000 mg/kg. Moreover, the ED50 in data set [4] (mice, p.o., nicotine-lethality) came out at 190 mg/kg. This compound also yielded a Therapeutic index in data set [4] (mice, p.o.) of 16.0.
On to `CCCCC1CCCCC1=NOCCN(C)C` (stereo not shown) [Example 1, 2-n-butyl-1-/2'-dimethylaminoethoxyimino/-cyclohexane], for which, in data set [2], the ED50 was 320 mg/kg. The LD50 at 96 h came out at 135 mg/kg in data set [3] (ip, read-out: LD50 i.p.) and 580 mg/kg in data set [3] (setting [11]).
Turning to `CCCC=C1CCCCC1=NOCCCN1CCN(C)CC1` [Example 7, 2-butylidene-1-[3'-/4"-methylpiperazinyl/-propoxyimino]-cyclohexane], the LD50 at 96 h in [3] (ip, read-out: LD50 i.p.) came to 330 mg/kg; in data set [3] (setting [11]), 1600 mg/kg. Besides, the “influence on the orthostatic hypotension” value in data set [5] is listed as “no influence on the orthostatic hypotension”. The “effect on the carotid occlusion reflex” value in [6] is recorded as “decreases the effect on the carotid occlusion reflex”. The ED50 in [7] (Felis catus, iv, read-out: noradrenaline antagonistic i.v. ED50) was determined as 2.3 mg/kg; in data set [4] (mice, p.o., nicotine-lethality), 155 mg/kg; in [9] (Felis catus, iv, read-out: isoproterenol antagonistic i.v. ED50), 2.5 mg/kg. The alpha-receptor blocking effect entry in data set [7] (qualitative) was “alpha- and beta-receptor blocking effect”. Also, the Therapeutic index in [4] (mice, p.o.) turned out to be 10.0. The “prolonged decrease of blood pressure” value in data set [8] was 40 Hgmm. Further, in [9] (qualitative), the beta-receptor blocking effect entry is “alpha- and beta-receptor blocking effect”. Further, the “decrease of blood pressure” value in [10] came to 13 Hgmm.
As for `CCN(CC)CC(=O)Nc1c(C)cccc1C` [Lidocaine, reference compound], in [1], the “Duration 0.25%” value was 24 min, the EC50 amounted to 0.19 % conc and the Relative efficiency was 1.00.

In general, LD50 refers to the dose expected to kill half of the subjects tested.
